Experimental data published in patent US8716292B2, “Riminophenazines with 2-(heteroaryl)amino substituents and their anti-microbial activity” (priority 2010, dated 2014).
In brackets after ≈: the same amount, converted by molar mass.

system: Mycobacterium tuberculosis H37Rv strains; experiment: In vitro assay for antimicrobial susceptibility (microplate Alamar blue MIC); format: cell-based; conditions: Mycobacterium tuberculosis, H37RV, 7H9, Alamar blue, inhibition ≧90%; read-out: MIC (μg/mL) against H37Rv

Compound	MIC
CC(C)/N=c1\cc2n(-c3ccc(OC(F)(F)F)cc3)c3ccccc3nc-2cc1Nc1ccccn1 [TBI-952, 5-(4-Trifluoromethoxyphenyl)-3-(1-methylethyl)imino-2-(2-pyridyl)amino-3,5-dihydrophenazine]	0.093 µg/mL (≈ 0.19 µM)
CC(C)/N=c1\cc2n(-c3ccc(Cl)cc3)c3ccccc3nc-2cc1Nc1cnccn1 [TBI-1077]	< 0.0075 µg/mL
CC(C)/N=c1\cc2n(-c3ccc(F)c(F)c3)c3ccccc3nc-2cc1Nc1ncccn1 [TBI-1437, 5-(3,4-Difluorophenyl)-3-(1-methylethyl)imino-2-(pyrimidin-2-yl)amino-3,5-dihydrophenazine]	0.02 µg/mL (≈ 0.0452 µM)

same assay, conditions: Mycobacterium tuberculosis, H37RV, in vitro, Mycobacterium tuberculosis H37Rv strains; read-out: MIC (μg/mL) against H37Rv

Compound	MIC
Clc1ccccc1-n1c2c/c(=N\C3CCCCC3)c(Nc3cccnc3)cc-2nc2ccccc21 [TBI-891, 5-(2-Chlorophenyl)-3-cyclohexylimino-2-(3-pyridyl)amino-3,5-dihydrophenazine]	0.036 µg/mL (≈ 0.075 µM)
CO[C@H]1CC[C@H](/N=c2\cc3n(-c4ccc(F)cc4)c4ccccc4nc-3cc2Nc2ccc(C)nc2)CC1 [TBI-907, 5-(4-Fluorophenyl)-3-(1′,4′-trans-4-methoxycyclohexyl)imino-2-(6-methyl-3-pyridyl)amino-3,5-dihydrophenazine]	0.063 µg/mL (≈ 0.124 µM)
CC(=O)Nc1ccc(Nc2cc3nc4ccccc4n(-c4ccc(C(F)(F)F)cc4)c-3c/c2=N\C(C)C)cn1 [TBI-711, 5-(4-Trifluoromethylphenyl)-3-(1-methylethyl)imino-2-(6-acetamino-3-pyridyl)amino-3,5-dihydrophenazine]	0.11 µg/mL (≈ 0.207 µM)
COc1ncccc1Nc1cc2nc3ccccc3n(-c3ccc(C(F)(F)F)cc3)c-2c/c1=N\C1CC1 [TBI-718, 5-(4-Trifluoromethylphenyl)-3-cyclopropylimino-2-(2-methoxy-3-pyridyl)amino-3,5-dihydrophenazine]	0.015 µg/mL (≈ 0.0299 µM)
Fc1ccc(-n2c3c/c(=N\C4CCCCC4)c(Nc4cccnc4)cc-3nc3ccccc32)cc1 [TBI-920, 5-(4-Fluorophenyl)-3-cyclohexylimino-2-(3-pyridyl)amino-3,5-dihydrophenazine]	0.029 µg/mL (≈ 0.0626 µM)
Cc1ccc(Nc2cc3nc4ccccc4n(-c4ccc(F)cc4)c-3c/c2=N\C2CCSCC2)cn1 [TBI-90B, 5-(4-Fluorophenyl)-3-(4-tetrahydrothiopyranyl)imino-2-(6-methyl-3-pyridyl)amino-3,5-dihydrophenazine]	0.397 µg/mL (≈ 0.801 µM)
Clc1cccc(-n2c3c/c(=N\C4CC4)c(Nc4cccnc4)cc-3nc3ccccc32)c1 [TBI-812, 5-(3-Chlorophenyl)-3-cyclopropylimino-2-(3-pyridyl)amino-3,5-dihydrophenazine]	0.013 µg/mL (≈ 0.0297 µM)
Cc1ccc(Nc2cc3nc4ccccc4n(-c4ccc(Cl)c(Cl)c4)c-3c/c2=N\C2CC2)cn1 [TBI-944, 5-(3,4-Dichlorophenyl)-3-cyclopropylimino-2-(6-methyl-3-pyridyl)amino-3,5-dihydrophenazine]	0.06 µg/mL (≈ 0.123 µM)
COc1ncccc1Nc1cc2nc3ccccc3n(-c3cccc(Cl)c3)c-2c/c1=N\C1CC1 [TBI-823, 5-(3-Chlorophenyl)-3-cyclopropylimino-2-(2-methoxy-3-pyridyl)amino-3,5-dihydrophenazine]	0.03 µg/mL (≈ 0.0641 µM)
Cc1ccc(-n2c3c/c(=N\C4CCC4)c(Nc4cccnc4C)cc-3nc3ccccc32)cc1 [TBI-347, 5-(4-Methylphenyl)-3-cyclobutylimino-2-(2-methyl-3-pyridyl)amino-3,5-dihydrophenazine]	0.042 µg/mL (≈ 0.0943 µM)
COc1ncccc1Nc1cc2nc3ccccc3n(-c3ccc(OC(F)(F)F)cc3)c-2c/c1=N\C1CCCCC1 [TBI-365, 5-(4-Trifluoromethoxyphenyl)-3-cyclohexylimino-2-(2-methoxy-3-pyridyl)amino-3,5-dihydrophenazine]	0.018 µg/mL (≈ 0.0322 µM)
Cc1ccc(-n2c3c/c(=N\C4CCC(O)CC4)c(Nc4cccnc4C)cc-3nc3ccccc32)cc1 (stereo not drawn) [TBI-335, 5-(4-Methylphenyl)-3-(4-hydroxycyclohexyl)imino-2-(2-methyl-3-pyridyl)amino-3,5-dihydrophenazine]	0.336 µg/mL (≈ 0.686 µM)
COc1ccc(Nc2cc3nc4ccccc4n(-c4ccc(C)cc4)c-3c/c2=N\C2CCC(OC)CC2)cn1 (stereo not drawn) [TBI-358, 5-(4-Methylphenyl)-3-(4-methoxycyclohexyl)imino-2-(6-methoxy-3-pyrid)amino-3,5-dihydrophenazine]	0.202 µg/mL (≈ 0.389 µM)
COc1ncccc1Nc1cc2nc3ccccc3n(-c3ccccc3)c-2c/c1=N\C1CCN(CC(C)C)CC1 [TBI-064, 5-Phenyl-3-(N-isobutyl-4-piperidyl)imino-2-(2-methoxy-3-pyridyl)amino-3,5-dihydrophenazine]	0.057 µg/mL (≈ 0.107 µM)
COc1ncccc1Nc1cc2nc3ccc(F)cc3n(-c3ccc(OC(F)(F)F)cc3)c-2c/c1=N\C1CC1 [TBI-857]	0.045 µg/mL (≈ 0.084 µM)
COc1ncccc1Nc1cc2nc3ccccc3n(-c3ccccc3OC(F)(F)F)c-2c/c1=N\C1CCOCC1 [TBI-1045, 5-(2-Trifluoromethoxyphenyl)-3-(4-tetrahydropyranyl)imino-2-(2-methoxy-3-pyridyl)amino-3,5-dihydrophenazine]	0.4 µg/mL (≈ 0.712 µM)
Clc1cccc(-n2c3c/c(=N\C4CCC4)c(Nc4cccnc4)cc-3nc3ccccc32)c1 [TBI-814, 5-(3-Chlorophenyl)-3-cyclobutylimino-2-(3-pyridyl)amino-3,5-dihydrophenazine]	0.04 µg/mL (≈ 0.0885 µM)
COc1ncccc1Nc1cc2nc3cc(F)ccc3n(-c3ccc(Cl)cc3)c-2c/c1=N\C1CC1 [TBI-859, 8-Fluoro-5-(4-chlorophenyl)-3-cyclopropylimino-2-(2-methoxy-3-pyridyl)amino-3,5-dihydrophenazine]	0.015 µg/mL (≈ 0.0309 µM)

Compound	MIC
Cc1ccc(-n2c3c/c(=N\C4CCOCC4)c(Nc4cccnc4)cc-3nc3ccccc32)cc1 [TBI-303, 5-(4-Methylphenyl)-3-(4-tetrahydropyranyl)imino-2-(3-pyridinyl)amino-3,5-dihydrophenazine]	0.03 µg/mL (≈ 0.065 µM)
CC(=O)Nc1ccc(Nc2cc3nc4ccccc4n(-c4ccc(C(F)(F)F)cc4)c-3c/c2=N\C2CCCCC2)cn1 [TBI-713, 5-(4-Trifluoromethylphenyl)-3-cyclohexylimino-2-(6-acetamino-3-pyridyl)amino-3,5-dihydrophenazine]	0.022 µg/mL (≈ 0.0386 µM)
COc1ncccc1Nc1cc2nc3ccccc3n(-c3ccccc3)c-2c/c1=N\CCN1CCOCC1 [TBI-065, 5-Phenyl-3-(2-morpholinoethyl)imino-2-(2-methoxy-3-pyridyl)amino-3,5-dihydrophenazine]	0.08 µg/mL (≈ 0.158 µM)
Cc1ccc(Nc2cc3nc4ccc(F)cc4n(-c4ccc(Cl)c(Cl)c4)c-3c/c2=N\C2CCOCC2)cn1 [TBI-949, 7-Fluoro-5-(3,4-dichlorophenyl)-3-(4-tetrahydropyranyl)imino-2-(6-methyl-3-pyridyl)amino-3,5-dihydrophenazine]	0.816 µg/mL (≈ 1.49 µM)
COc1ncccc1Nc1cc2nc3ccccc3n(-c3ccc(OC(F)(F)F)cc3)c-2c/c1=N\C(C)C [TBI-164, 5-(4-Trifluoromethoxyphenyl)-3-(1-methylethyl)imino-2-(2-methoxy-3-pyridyl)amino-3,5-dihydrophenazine]	0.028 µg/mL (≈ 0.0539 µM)
COC1CCC(/N=c2\cc3n(-c4ccc(OC(F)(F)F)cc4)c4cc(F)ccc4nc-3cc2Nc2ccc(C)nc2)CC1 (stereo not drawn) [TBI-852, 7-Fluoro-5-(4-trifluoromethoxyphenyl)-3-(4-methoxycyclohexyl)imino-2-(6-methyl-3-pyridyl)amino-3,5-dihydrophenazine]	0.024 µg/mL (≈ 0.0406 µM)
COc1ncccc1Nc1cc2nc3ccccc3n(-c3ccccc3OC(F)(F)F)c-2c/c1=N\C(C)C [TBI-1046, 5-(2-Trifluoromethoxyphenyl)-3-(1-methylethyl)imino-2-(2-methoxy-3-pyridyl)amino-3,5-dihydrophenazine]	0.44 µg/mL (≈ 0.847 µM)
COc1ccc2nc3cc(Nc4cccnc4OC)/c(=N/C4CCC(OC)CC4)cc-3n(-c3ccc(Cl)cc3)c2c1 (stereo not drawn) [TBI-941, 7-Methoxy-5-(4-chlorophenyl)-3-(4-methoxycyclohexyl)imino-2-(2-methoxy-3-pyridyl)amino-3,5-dihydrophenazine]	0.06 µg/mL (≈ 0.105 µM)
Cc1ccc(Nc2cc3nc4ccccc4n(-c4ccccc4)c-3c/c2=N\C(C)C)cn1 [TBI-067, 5-Phenyl-3-(1-methylethyl)imino-2-(6-methyl-3-pyridyl)amino-3,5-dihydrophenazine]	0.048 µg/mL (≈ 0.114 µM)
COC1CCC(/N=c2\cc3n(-c4ccc(C)cc4)c4ccccc4nc-3cc2Nc2cccnc2)CC1 (stereo not drawn) [TBI-301, 5-(4-Methylphenyl)-3-(4-methoxycyclohexyl)imino-2-(3-pyridyl)amino-3,5-dihydrophenazine]	0.06 µg/mL (≈ 0.123 µM)
Clc1ccc(-n2c3c/c(=N\CCN4CCOCC4)c(Nc4cccnc4)cc-3nc3ccccc32)cc1 [TBI-433, 5-(4-Chlorophenyl)-3-(2-morpholinoethyl)imino-2-(3-pyridyl)amino-3,5-dihydrophenazine]	0.25 µg/mL (≈ 0.489 µM)
Cc1ncccc1Nc1cc2nc3ccccc3n(-c3ccc(Cl)cc3)c-2c/c1=N\C(C)C [TBI-448, 5-(4-Chlorophenyl)-3-(1-methylethyl)imino-2-(2-methyl-3-pyridyl)amino-3,5-dihydrophenazine]	0.055 µg/mL (≈ 0.121 µM)
COc1ncccc1Nc1cc2nc3ccc(F)cc3n(-c3ccc(Cl)cc3)c-2c/c1=N\C1CCOCC1 [TBI-928]	0.5 µg/mL (≈ 0.943 µM)
CC(C)/N=c1\cc2n(-c3ccc([S+](C)[O-])cc3)c3ccccc3nc-2cc1Nc1cccnc1 (stereo not drawn) [TBI-457, 5-(4-Methylsulfinylphenyl)-3-(1-methylethyl)imino-2-(3-pyridyl)amino-3,5-dihydrophenazine]	0.469 µg/mL (≈ 1 µM)
COc1ncccc1Nc1cc2nc3ccccc3n(-c3ccccc3)c-2c/c1=N\C1CCOCC1 [TBI-066, 5-Phenyl-3-(4-tetrahydropyranyl)imino-2-(2-methoxy-3-pyridyl)amino-3,5-dihydrophenazine]	0.026 µg/mL (≈ 0.0544 µM)
COCC(COC)/N=c1\cc2n(-c3ccc(OC(F)(F)F)cc3)c3ccccc3nc-2cc1Nc1cccnc1OC [TBI-372]	0.098 µg/mL (≈ 0.169 µM)
Cc1ccc(-n2c3c/c(=N\C4CC4)c(Nc4cccnc4)cc-3nc3ccccc32)cc1 [TBI-349, 5-(4-Methylphenyl)-3-cyclopropylimino-2-(3-pyridyl)amino-3,5-dihydrophenazine]	0.0075 µg/mL (≈ 0.018 µM)
Cc1cncc(Nc2cc3nc4ccccc4n(-c4ccc(C(F)(F)F)cc4)c-3c/c2=N\C(C)C)c1 [TBI-721, 5-(4-Trifluoromethylphenyl)-3-(1-methylethyl)imino-2-(5-methyl-3-pyridyl)amino-3,5-dihydrophenazine]	0.082 µg/mL (≈ 0.168 µM)
